Here are results for 74 compounds from article PMC9579956 (RSC Medicinal Chemistry, 2022).

SMILES strings stand for the structures.

The target in this assay is Mycobacterium thermoresistible (Mtr) LpqY (Mycolicibacterium thermoresistibile, UniProt G7CES0). It counts as binding. The conditions noted are these: single dose MST screen against LpqY.
Mycobacterium thermoresistible (Mtr) LpqY, sequence (G7CES0 29-471): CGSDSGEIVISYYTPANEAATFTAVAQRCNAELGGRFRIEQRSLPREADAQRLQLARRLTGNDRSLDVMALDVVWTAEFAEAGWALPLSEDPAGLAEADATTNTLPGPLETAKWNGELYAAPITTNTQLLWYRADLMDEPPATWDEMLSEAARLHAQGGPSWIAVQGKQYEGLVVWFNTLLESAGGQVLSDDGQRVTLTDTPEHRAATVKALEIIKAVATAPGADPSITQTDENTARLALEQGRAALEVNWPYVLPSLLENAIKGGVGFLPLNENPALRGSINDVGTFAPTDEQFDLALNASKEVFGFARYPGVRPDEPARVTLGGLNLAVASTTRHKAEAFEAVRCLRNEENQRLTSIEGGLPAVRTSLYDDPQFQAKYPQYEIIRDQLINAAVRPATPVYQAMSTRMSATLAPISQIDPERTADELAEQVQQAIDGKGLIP

On to `CCN(CC)CCCN1CCN(C(=O)c2cccc(-c3noc(C(F)(F)F)n3)c2)CC1` [MMV022236], for which the “Pathogen Box screen signal/noise ratio” value stood at 0.542.

As for `O=C(Nc1ccc(N2CCNCC2)cc1)c1ccn2ncc(-c3cccc(Cl)c3)c2n1` [MMV022478], the “Pathogen Box screen signal/noise ratio” value worked out at 2.0.

As for `c1ccc2c(c1)CN(CC1CC1)CC1(CCN(Cc3c[nH]c4cnccc34)CC1)O2` [MMV023183], the “Pathogen Box screen signal/noise ratio” value is recorded as 2.8.

`Cc1nc(-c2cccc(NCc3ccccc3)c2)[nH]c1C` [MMV023227]: the “Pathogen Box screen signal/noise ratio” value is recorded as 1.4.

Take `Nc1nccc2ccc(-c3ccc4nccn4c3)cc12` [MMV023233]: the “Pathogen Box screen signal/noise ratio” value was determined as 0.9.

Consider `Nc1ncc(-c2cn[nH]c2)cc1-c1nc2cc(Cl)cnc2[nH]1` [MMV023370], for which the “Pathogen Box screen signal/noise ratio” value came out at 1.1.

Consider `O=C(NC1CCN(c2ccnc3ccccc23)C1)c1cccc(C(F)(F)F)c1` (centres unmarked) [MMV023388], for which the “Pathogen Box screen signal/noise ratio” value is -0.0357.

Take `NS(=O)(=O)c1cccc(-c2ccc3ncc(N4CCOCC4)nc3c2)c1` [MMV023860]: the “Pathogen Box screen signal/noise ratio” value came out at 1.6.

On to `CC(C)(C)c1cc(C(=O)N2CCN(c3nccnc3C#N)CC2)n(Cc2ccccc2)n1` [MMV023949], for which the “Pathogen Box screen signal/noise ratio” value worked out at 0.7.

With `O=C(Nc1cccc(-c2ccc(NCCCN3CCCC3)nc2)c1)c1ccccc1` [MMV023953], the “Pathogen Box screen signal/noise ratio” value stood at 2.4.

`c1cncc(NCc2ccc(-c3cc4ccncc4cc3OC3CCNCC3)s2)c1` [MMV023969]: the “Pathogen Box screen signal/noise ratio” value is reported as 1.3.

`COc1ccc(-c2cnc3ccc(N4CCCC4)nn23)cc1OC` [MMV023985]: the “Pathogen Box screen signal/noise ratio” value came to 2.0.

Turning to `O=C(Nc1ccccc1)c1ccc(-c2cc3ccncc3cc2OC2CCNCC2)s1` [MMV024035], the “Pathogen Box screen signal/noise ratio” value came to 2.8.

Consider `NS(=O)(=O)c1cncc(-c2ccc3nccc(-c4cn[nH]c4)c3n2)c1` [MMV024101], for which the “Pathogen Box screen signal/noise ratio” value is on record as 0.429.

Take `Cc1ccc(S(=O)(=O)n2cc(-c3ccnc(N)c3)c3cc(Br)cnc32)cc1` [MMV024114]: the “Pathogen Box screen signal/noise ratio” value stood at 1.1.

As for `CN(C)CCNC(=O)N1CCCN(c2ncnc3cc(-c4ccccc4)sc23)CC1` [MMV024195], the “Pathogen Box screen signal/noise ratio” value stood at 0.217.

`Cc1ccc2[nH]c(C3CCCNC3)c(-c3ccncc3)c2c1` (centres unmarked) [MMV024311]: the “Pathogen Box screen signal/noise ratio” value turned out to be 0.4.

Regarding `O=C(NC1CC1)c1ccc(N2CCC(Cc3ccccc3)CC2)nc1` [MMV024397], the “Pathogen Box screen signal/noise ratio” value is listed as 0.8.

As for `CN(C(=O)c1cc2c(-c3cncnc3)cccc2[nH]1)c1ccccc1` [MMV024443], the “Pathogen Box screen signal/noise ratio” value is listed as -0.0357.

Take `Cc1cccc(C(=O)Nc2ccnc(N(C)C3CCN(CC(C)C)CC3)c2)c1` [MMV024829]: the “Pathogen Box screen signal/noise ratio” value was -0.0167.

`O=C(Nc1ccc(N2CCNCC2)nc1)c1oc(-c2ccccc2)nc1C(F)(F)F` [MMV024937]: the “Pathogen Box screen signal/noise ratio” value came out at 2.9.

Turning to `CS(=O)(=O)c1cccc(-c2cnc3[nH]cc(-c4ccc(CCC(=O)O)cc4)c3c2)c1` [MMV026020], the “Pathogen Box screen signal/noise ratio” value is reported as 1.4.

In the case of `Nc1nccc2ccc(Oc3ccncc3)cc12` [MMV026313], the “Pathogen Box screen signal/noise ratio” value is listed as 1.4.

`CCn1ncc2c(NC3CCOCC3)c(CNC(=O)c3ccnn3C)c(C)nc21` [MMV026356]: the “Pathogen Box screen signal/noise ratio” value amounted to 0.6.

Take `OCc1ccc(-c2cncc(Nc3cccc(Cl)c3)c2)cc1` [MMV026468]: the “Pathogen Box screen signal/noise ratio” value is 0.563.

Consider `O=C(NCCc1ccccc1)c1cc(-c2cccnc2)cnc1NCC1CC1` [MMV026490], for which the “Pathogen Box screen signal/noise ratio” value is on record as 1.4.

`CC(C)(C)CN1C(=O)C(c2ccccc2)(c2ccccc2)N=C1N` [MMV026550]: the “Pathogen Box screen signal/noise ratio” value amounted to 0.455.

Turning to `OCCc1ccc(Nc2nccc(-c3nnc4ccccn34)n2)cc1` [MMV028694], the “Pathogen Box screen signal/noise ratio” value was determined as 1.5.

On to `CC(C)(CN)c1nc(-c2ccc(Cl)c(O)c2)c(-c2ccnc(N)n2)[nH]1` [MMV030734], for which the “Pathogen Box screen signal/noise ratio” value was 3.5.

Consider `FC(F)(F)c1cccc(-c2nc3c(NCc4ccncc4)nccc3[nH]2)c1` [MMV032967], for which the “Pathogen Box screen signal/noise ratio” value is 3.3.

On to `O=C1COCc2ccc(Br)cc2N1Cc1ccc(C(F)(F)F)cc1` [MMV032995], for which the “Pathogen Box screen signal/noise ratio” value came out at 0.9.

For the compound `c1ccc(Oc2ccc(-c3cc(N4CCOCC4)[nH]n3)cc2)cc1` [MMV045105], the “Pathogen Box screen signal/noise ratio” value came to 1.1.

On to `COc1cc(C(F)(F)F)nc2ccc(C)c(N)c12` [MMV047015], for which the “Pathogen Box screen signal/noise ratio” value is recorded as 2.0.

Take `N#Cc1ccc(-c2ccc(OCC(N)=O)cc2)cc1` [MMV053220]: the “Pathogen Box screen signal/noise ratio” value was determined as 0.639.

Turning to `CC(=O)N1CCc2cc3nc(C)cc(C)c3cc21` [MMV054312], the “Pathogen Box screen signal/noise ratio” value is given as 0.107.

Turning to `Cc1cc(C)nc(-n2nc(C)cc2Nc2ccccc2)n1` [MMV062221], the “Pathogen Box screen signal/noise ratio” value turned out to be 0.8.

As for `Cc1nn(Cc2ccccc2)c(Cl)c1C(=O)NC1CCCCCC1` [MMV063404], the “Pathogen Box screen signal/noise ratio” value is recorded as 2.2.

For the compound `FC(F)(F)c1nnc2ccc(Cl)nn12` [MMV069458], the “Pathogen Box screen signal/noise ratio” value worked out at 2.4.

Turning to `O=C1N(Cc2cc3ccccc3s2)CC2CN(Cc3ccccc3)CCN12` (centres unmarked) [MMV084603], the “Pathogen Box screen signal/noise ratio” value stood at 1.3.

`O=C(Nc1cnc2ccccc2c1)c1cccc(-n2cnnn2)c1` [MMV084864]: the “Pathogen Box screen signal/noise ratio” value is on record as 1.5.

On to `COc1cncc(-c2cncc(N3CCN(c4ccncc4)CC3)n2)c1` [MMV085071], for which the “Pathogen Box screen signal/noise ratio” value was found to be 1.2.

As to `O=C(C(Cc1c[nH]c2ccccc12)NS(=O)(=O)c1ccc(Cl)cc1)N1CCCCC1` (centres unmarked) [MMV085210], the “Pathogen Box screen signal/noise ratio” value is given as 2.9.

As to `CCCNC(=O)N1CCC2(CC1)CC(=O)c1cc(C)ccc1O2` [MMV085230], the “Pathogen Box screen signal/noise ratio” value was found to be 1.0.

As for `N#Cc1ccc(-c2cnc(N)c(-c3ccc(C(N)=O)cc3)n2)cc1` [MMV085499], the “Pathogen Box screen signal/noise ratio” value was found to be 2.4.

On to `Cc1nn2c(O)c3c(nc2c1-c1ccc(F)cc1)CCCC3` [MMV099637], for which the “Pathogen Box screen signal/noise ratio” value was 3.3.

For `O=C(Nc1nnc(-c2ccc(Cl)cc2)o1)c1cccc(C(F)(F)F)c1` [MMV102872], the “Pathogen Box screen signal/noise ratio” value is reported as 0.75.

As for `CCC(C)NC(=O)c1ccc(NC(=O)C2(c3ccccc3)CCCC2)cc1` (centres unmarked) [MMV146306], the “Pathogen Box screen signal/noise ratio” value is given as -0.653.

In the case of `CCOC(=O)c1c(NC(=O)c2c(F)c(F)c(F)c(F)c2F)sc(C(N)=O)c1C` [MMV153413], the “Pathogen Box screen signal/noise ratio” value amounted to 1.3.

For `Cc1cc(Cl)ccc1NC(=O)CCc1ccc(S(=O)(=O)NCC(C)C)cc1` [MMV161996], the “Pathogen Box screen signal/noise ratio” value was found to be 1.2.

As for `CNC(=O)C1Cc2ccccc2N1C(=O)Cc1ccc(F)cc1` (centres unmarked) [MMV188296], the “Pathogen Box screen signal/noise ratio” value is recorded as 1.9.

As to `COc1ccc(C2(C(=O)Nc3ccc(Br)cc3)CCCC2)cc1` [MMV200748], the “Pathogen Box screen signal/noise ratio” value turned out to be 1.4.

As for `CCC(=O)Nc1ccccc1C(=O)Nc1ccccn1` [MMV202553], the “Pathogen Box screen signal/noise ratio” value is 1.4.

As to `COc1cccc(NC(=O)c2c(NC(=O)c3cccnc3)sc3c2CCC3)c1` [MMV228911], the “Pathogen Box screen signal/noise ratio” value came to 2.2.

On to `COc1cccc(-n2nnnc2S(C)(=O)=O)c1` [MMV272144], for which the “Pathogen Box screen signal/noise ratio” value turned out to be 0.7.

For `COc1cccc(-c2cc3c(Nc4cccnc4)nccc3[nH]2)c1` [MMV392832], the “Pathogen Box screen signal/noise ratio” value was 2.1.

Consider `CN1CCN(c2nccc3[nH]c(-c4cccc(F)c4)cc23)CC1` [MMV393144], for which the “Pathogen Box screen signal/noise ratio” value was 1.4.

`Cc1cc(O)nc(-n2nc(C)cc2C)n1` [MMV393995]: the “Pathogen Box screen signal/noise ratio” value is 0.65.

In the case of `CCc1nc2ccc(C(=O)NCc3ccc4c(c3)OCO4)cn2c1N(C)Cc1cccs1` [MMV407539], the “Pathogen Box screen signal/noise ratio” value was 0.241.

On to `CCOc1ccccc1NC(C)C(=O)Nc1cc(C(F)(F)F)ccc1N1CCOCC1` (centres unmarked) [MMV407834], for which the “Pathogen Box screen signal/noise ratio” value is 2.3.

For `COC(=O)c1c(NC(=O)c2c(F)c(F)c(F)c(F)c2F)sc2c1CCCCC2` [MMV461553], the “Pathogen Box screen signal/noise ratio” value is 2.6.

In the case of `CC(C)(C)c1cnc(NC(=O)c2ccccc2O)s1` [MMV495543], the “Pathogen Box screen signal/noise ratio” value stood at 0.8.

`CS(=O)(=O)Cc1nc2ccccc2oc1=O` [MMV553002]: the “Pathogen Box screen signal/noise ratio” value was found to be 3.2.

`c1ccc(-c2cc(N3CCCCC3)c3ccccc3n2)nc1` [MMV560185]: the “Pathogen Box screen signal/noise ratio” value worked out at 0.7.

As to `CCN(CC)S(=O)(=O)c1ccc(C(=O)Nc2cc(C)nn2-c2nc(C)c(C)c(=O)[nH]2)cc1` [MMV595321], the “Pathogen Box screen signal/noise ratio” value is given as 0.167.

Take `CCC(Sc1nc2ccccc2o1)C(=O)Nc1nnc(C)s1` (centres unmarked) [MMV611037]: the “Pathogen Box screen signal/noise ratio” value turned out to be 0.9.

Regarding `O=C(NCCN1CCCC1)c1cc(NCCN2CCOCC2)nc2ccc(Cl)cc12` [MMV634140], the “Pathogen Box screen signal/noise ratio” value came to 0.9.

On to `Cc1ccc(C(=O)Nc2ccc(S(=O)(=O)O)c3cc(S(=O)(=O)O)cc(S(=O)(=O)O)c23)cc1NC(=O)c1cccc(NC(=O)Nc2cccc(C(=O)Nc3cc(C(=O)Nc4ccc(S(=O)(=O)O)c5cc(S(=O)(=O)O)cc(S(=O)(=O)O)c45)ccc3C)c2)c1` [MMV637953], for which the “Pathogen Box screen signal/noise ratio” value was determined as 0.7.

Consider `O=C(Nc1ccc2c(c1)B(O)OC2)c1ccccc1C(F)(F)F` [MMV652003], for which the “Pathogen Box screen signal/noise ratio” value amounted to 0.444.

As for `Cc1nc(-c2ccccn2)nc(N(C)CCc2ccccc2)c1Cl` [MMV658988], the “Pathogen Box screen signal/noise ratio” value turned out to be 2.9.

For `Cc1nc(-c2ccccn2)nc(NCCc2ccc(S(C)(=O)=O)cc2)c1Cl` [MMV658993], the “Pathogen Box screen signal/noise ratio” value is listed as 0.75.

`Cc1nc(-c2ccccn2)nc(N2CCC(Cc3ccccc3)C2)c1Cl` (centres unmarked) [MMV659004]: the “Pathogen Box screen signal/noise ratio” value is given as 0.2.

`FC(F)(F)c1cc(NCCc2ccccc2)nc(-c2ccccn2)n1` [MMV659010]: the “Pathogen Box screen signal/noise ratio” value was found to be 1.0.

With `Brc1cncc(-c2cc(NCCCn3ccnc3)nc(-c3ccccc3)n2)c1` [MMV661713], the “Pathogen Box screen signal/noise ratio” value is 0.5.

For `Clc1cccc(C(c2ccc(CN3CCNCC3)cc2)n2ccnc2)c1` (centres unmarked) [MMV663250], the “Pathogen Box screen signal/noise ratio” value turned out to be 0.278.
